Data taken from PubChem BioAssay AID1963969 (Molecular Pharmacology Branch, DTP, NCI, 2024).
Several values for one entry are separate records, joined by “and”; a condition that tells them apart may be missing. Equal values may be shown once. One block for each molecule: values may come before it.

Test system: 817829-284-R-J1-PDC multi-cell spheroid viability
Test: Anticancer human tumor 817829-284-R-J1-PDC patient-derived colon adenocarcinoma cell line growth inhibition [PI3K]
Conditions: for viability, T/C: stronger effect = lower value
Outline: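 Complex 3D spheroids (cancer cells + endothelial HUVEC + mesenchymal stem cells); drug pairs of targeted agent x inavolisib/alpelisib/duvelisib/copanlisib; half-log series from ~Cmax, max 10 microM if Cmax unknown; endpoint viability.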
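Further: spheroids exposed to agents for seven days before readout.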
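Wherever viability, T/C is given: percent of vehicle DMSO control viability which is 100%.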

IC50 (curve of compound): 6.66 µM and > 10 µM
SMILES: C#Cc1c(F)ccc2cc(O)cc(-c3ncc4c(N5CC6CCC(C5)N6)nc(OCC56CCCN5CC(F)C6)nc4c3F)c12 (stereo not drawn)
viability, T/C (compound 0.0316 µM): 83.3% and 99%
viability, T/C (compound 0.1 µM): 95.1% and 72.9%
viability, T/C (compound 0.316 µM): 69.9% and 83%
viability, T/C (compound 1 µM): 68.4% and 99.7%
viability, T/C (compound 3.16 µM): 87.7% and 88.6%
viability, T/C (compound 10 µM): 33.2% and 56.2%

IC50 (curve of compound): 0.0514 µM and 0.0628 µM
SMILES: Cn1ncnc1[C@H]1c2n[nH]c(=O)c3cc(F)cc(c23)N[C@@H]1c1ccc(F)cc1
viability, T/C (compound 0.000316 µM): 113% and 70.3%
viability, T/C (compound 0.001 µM): 106% and 90.1%
viability, T/C (compound 0.00316 µM): 83.9% and 67%
viability, T/C (compound 0.01 µM): 75.3%
viability, T/C (compound 0.0316 µM): 55.6% and 55%
viability, T/C (compound 0.1 µM): 41.3% and 46.6%

The remaining lines, values behind:

SMILES: CNC(=O)c1ccc(N2C(=S)N(c3ccc(C#N)c(C(F)(F)F)c3)C(=O)C2(C)C)cc1F
viability, T/C (compound 0.0316 µM): 86.9% and 87.2% and 88.4%
viability, T/C (compound 0.1 µM): 93.2% and 97.5% and 76.6%
viability, T/C (compound 0.316 µM): 70.6% and 71.9% and 77.2%
viability, T/C (compound 1 µM): 99.3% and 68.8% and 80.3%
viability, T/C (compound 3.16 µM): 84.2% and 97.4% and 67.9%
viability, T/C (compound 10 µM): 65.4% and 29% and 68.9%
IC50 (curve of compound): > 10 µM and 6.48 µM

SMILES: COc1c(OCCCN2CCOCC2)ccc2c3n(c(=NC(=O)c4cnc(N)nc4)nc12)CCN3
viability, T/C (compound 0.01 µM): 83.5% [middle of 6 runs]
viability, T/C (compound 0.0316 µM): 60.5% [middle of 6 runs]
viability, T/C (compound 0.1 µM): 39.5% [middle of 6 runs]
viability, T/C (compound 0.316 µM): 21.5% [middle of 6 runs]
viability, T/C (compound 1 µM): 10.1% [middle of 6 runs]
IC50 (compound alone, run of 04/25/2023): 58.3 nM [middle of 6 runs]

SMILES: Cc1nc(NC(=O)N2CCCC2C(N)=O)sc1-c1ccnc(C(C)(C)C(F)(F)F)c1 (stereo not drawn)
viability, T/C (compound 10 µM): 68.7% [middle of 6 runs]
IC50 (compound alone, run of 04/24/2023): > 10 µM

SMILES: CC(=O)c1c(C)c2cnc(Nc3ccc(N4CCNCC4)cn3)nc2n(C2CCCC2)c1=O + CC(Nc1ncnc2nc[nH]c12)c1cc2cccc(Cl)c2c(=O)n1-c1ccccc1
IC50 (curve of first compound, second compound 0.0316 µM): 0.0709 µM
IC50 (curve of first compound, second compound 0.1 µM): 0.074 µM
IC50 (curve of first compound, second compound 0.316 µM): > 0.1 µM
IC50 (curve of first compound, second compound 1 µM): 0.0712 µM
IC50 (curve of first compound, second compound 3.16 µM): 0.0143 µM
IC50 (curve of first compound, second compound 10 µM): 0.0334 µM
viability, T/C (second compound 0.0316 µM, first compound 0.000316 µM): 96%
viability, T/C (second compound 0.0316 µM, first compound 0.001 µM): 68.1%
viability, T/C (second compound 0.0316 µM, first compound 0.00316 µM): 74.3%
viability, T/C (second compound 0.0316 µM, first compound 0.01 µM): 75.4%
viability, T/C (second compound 0.0316 µM, first compound 0.0316 µM): 77%
viability, T/C (second compound 0.0316 µM, first compound 0.1 µM): 38.6%
viability, T/C (second compound 0.1 µM, first compound 0.000316 µM): 92.5%
viability, T/C (second compound 0.1 µM, first compound 0.001 µM): 79.8%
viability, T/C (second compound 0.1 µM, first compound 0.00316 µM): 74.5%
viability, T/C (second compound 0.1 µM, first compound 0.01 µM): 90.2%
viability, T/C (second compound 0.1 µM, first compound 0.0316 µM): 79%
viability, T/C (second compound 0.1 µM, first compound 0.1 µM): 39.4%
viability, T/C (second compound 0.316 µM, first compound 0.000316 µM): 90.8%
viability, T/C (second compound 0.316 µM, first compound 0.001 µM): 85%
viability, T/C (second compound 0.316 µM, first compound 0.00316 µM): 101%
viability, T/C (second compound 0.316 µM, first compound 0.01 µM): 60.2%
viability, T/C (second compound 0.316 µM, first compound 0.0316 µM): 56.5%
viability, T/C (second compound 0.316 µM, first compound 0.1 µM): 51.3%
viability, T/C (second compound 1 µM, first compound 0.000316 µM): 101%
viability, T/C (second compound 1 µM, first compound 0.001 µM): 73.1%
viability, T/C (second compound 1 µM, first compound 0.00316 µM): 78.7%
viability, T/C (second compound 1 µM, first compound 0.01 µM): 83.5%
viability, T/C (second compound 1 µM, first compound 0.0316 µM): 59.8%
viability, T/C (second compound 1 µM, first compound 0.1 µM): 43.5%
viability, T/C (second compound 3.16 µM, first compound 0.000316 µM): 65%
viability, T/C (second compound 3.16 µM, first compound 0.001 µM): 134%
viability, T/C (second compound 3.16 µM, first compound 0.00316 µM): 78.8%
viability, T/C (second compound 3.16 µM, first compound 0.01 µM): 57.5%
viability, T/C (second compound 3.16 µM, first compound 0.0316 µM): 37.8%
viability, T/C (second compound 3.16 µM, first compound 0.1 µM): 42.7%
viability, T/C (second compound 10 µM, first compound 0.000316 µM): 60.1%
viability, T/C (second compound 10 µM, first compound 0.001 µM): 54.4%
viability, T/C (second compound 10 µM, first compound 0.00316 µM): 51%
viability, T/C (second compound 10 µM, first compound 0.01 µM): 66.3%
viability, T/C (second compound 10 µM, first compound 0.0316 µM): 46.6%
viability, T/C (second compound 10 µM, first compound 0.1 µM): 34.4%

SMILES: Cn1cnc2c(F)c(Nc3ccc(Br)cc3Cl)c(C(=O)NOCCO)cc21
viability, T/C (compound 0.00949 µM): 87.3% and 90.1%
viability, T/C (compound 0.03 µM): 70.7% and 64.5%
viability, T/C (compound 0.0949 µM): 65% and 73.3%
viability, T/C (compound 0.3 µM): 62.5% and 52.7%
viability, T/C (compound 0.949 µM): 55.5% and 55.6%
viability, T/C (compound 3 µM): 33.4% and 21.9%
IC50 (curve of compound): 0.901 µM and 0.649 µM
